Test results: publication PMC6587507, “Comparison of the metabolism of 10 chemicals in human and pig skin explants” (Journal of Applied Toxicology, 2018)
Like-named read-outs stand apart in the source and are kept apart here.

Tests used:
[1] = system: pig ear skin explants
Experimental: (§1) Human abdominal skin was obtained (with consent for research from a commercial supplier [L’Union Clinic, Rangueil hospital and Icelltis, Toulouse, France] with certified ethical procedures) from six male and 34 female healthy donors, 41 ± 11 years of age, undergoing cosmetic surgery. Abdominal skin was kept at 4°C during transports and placed in culture within 3 hours of surgery. Pig ear skin was a waste product of the meat industry (without hot steam treatment) from domestic pigs (female Pietrain breed, 6 months old, 80‐100 kg) obtained from a local slaughterhouse (Montauban, France). Ears were taken from the animals within 5 minutes of slaughter and were kept at 4°C during transport to the laboratory, which lasted a maximum of 2 hours. Pig skin samples were dried and then gently shaved.
(§2) The experiment and the preparation of the culture medium were performed under sterile conditions. Human and pig skin was cut with a dermatome to a thickness of 450 ± 50 μm. Skin punches were seeded dermal side down in polycarbonate Transwell® inserts from Corning Life Sciences (Avon, France; 4.16 cm^2 application area with an 8 μm pore size filter). […] The inserts were placed in a six‐well plate containing 1.5 mL culture medium and the skin explants incubated in a standard incubator at 37°C, under an atmosphere of 5% CO2 and 50 ± 10% relative humidity. The culture medium was Dulbecco's modified Eagle medium without phenol red supplemented with 8 mM L‐glutamine, 2 μg/mL streptomycin/penicillin, 25 ng/mL fungizone and 50 ng/mL gentamycin. Skin explants were incubated for 1 hour before application of the formulation.
(§3) The dosing volume was 10 μL/cm^2. For pig skin metabolism studies, which were carried out before the human skin experiments to ensure the analytics were optimal, 2.4 nmol/cm^2 of each chemical (only the ^14C‐labeled form) was applied on the skin and incubated for 24 hours for the measurement of metabolites in the medium. These tissues were further incubated for a total of 48 hours, with a replacement of the culture medium after 24 hours. This longer incubation time and the standard doses of 2.4 nmol/cm^2 were used to maximize the likelihood of the skin forming metabolites to develop analytical methods. The metabolites profiles in pig and human skin were compared in the medium sample at 24 hours of incubation. The metabolite profiles for the 48‐hour timepoint are not reported here since humans skin metabolism was measured at 24 hours only; however, for completeness, the distribution of radioactivity at the end of both pig (48 hours) and human (24 hours) skin incubations is reported. […] The doses were obtained by mixing radiolabeled and cold chemical. One replicate disc per donor and per dose was used. All chemicals were tested on four donors of pig and human skin, except for 2‐AAF and 4‐amino‐3‐nitrophenol (4‐A‐3‐NP), for which three donors were used. The medium was removed after 24 hours of incubation and stored at −20°C for analysis.
(§4) After centrifugation, a 100 μL aliquot of the extract was counted by liquid scintillation. The pellet was dissolved in 3 mL Soluable (60°C, 24 hours) and then counted by liquid scintillation.
(§5) Analysis of the chemicals and their metabolites in medium after 24 hours of incubation with pig and human skin was measured by radio‐high‐performance liquid chromatography (HPLC) using an HPLC 1100 Series, Agilent and a Flow Scintillation Analyzer, Radiomatic 610 TR, Perkin Elmer (Villebon‐sur‐Yvette, France). […] To confirm that metabolites were the same in pig and human skin, medium samples were co‐injected on the new column. The metabolites were identified by LC‐electrospray ionization‐HRMS (HPLC‐ESI‐HRMS) with a RSLC3000 HPLC system coupled to a LTQ‐Orbitrap XL mass spectrometer (Thermo Scientific). The HPLC analytical conditions for identification and quantification of the metabolites for each chemical are summarized in Supporting information Table S1.

[2] = system: human abdominal skin explants
Experimental: as §1, §2, §3, §4, §5

[3] = system: human abdominal skin explants; test: Cutaneous distribution and mass balance of radioactivity in human skin explants
Experimental: as §1, §2, §3
(§6) At the end of the experiment, the trans‐wells were dismantled and washed with appropriate solvent for each chemical. […] The cotton swabs were placed in 5 mL of appropriate solvent in a scintillation counting flask and placed in a sonicator bath for 20 minutes. Aliquots of 1 mL were counted by liquid scintillation, after addition of 15 mL of scintillation liquid. Tissue culture inserts were washed with 10 mL of appropriate solvent. One aliquot of 1 mL was counted by liquid scintillation, after addition of 15 mL of scintillation liquid. After media removal, wells were washed twice with 1 mL of the appropriate solvent. Washing solutions were counted by liquid scintillation, after addition of 15 mL of scintillation liquid.
(§7) Pig skin explants were digested using 3 mL Soluable (60°C for 24 hours) and counted by liquid scintillation. Skin extraction process was adapted according to the physicochemical properties of each chemical and its potential metabolites.

[4] = ref Chemspider (www.chemspider.com), cited from earlier work
[5] = system: pig ear skin explants; test: Cutaneous distribution and mass balance of radioactivity in pig skin explants
Experimental: as §1, §2, §3, §6, §7

[6] = human skin, end of incubation (24 h), mean ± SD
[7] = pig skin, end of incubation (48 h), mean ± SD

Molecule | Parent compound in the medium after 24 h ([1]; pig skin, 24 h, mean ± SEM) | Parent compound in the medium after 24 h ([2]; both, human, 24 h) | Total metabolites in the medium after 24 h ([2]; both, human, 24 h) | Mass balance (% of applied dose at end of incubation) ([3]; human skin, 24 h) | Medium radioactivity [3, 6] | % Radioactivity in culture media after 24 h ([5]; pig skin, 2.4 nmol/cm^2) | Mass balance (% of applied dose at end of incubation) ([5]; pig skin, 48 h, 2.4 nmol/cm^2) | Medium radioactivity [5, 7] | % Radioactivity in culture media after 24 h ([3]; human skin, 24 h) | Maximum water solubility [4] | Skin radioactivity [3, 6] | Skin surface radioactivity [3, 6] | LogP [4] | Skin radioactivity [5, 7] | Skin surface radioactivity [5, 7] | also measured
OCC=Cc1ccccc1 [Cinnamyl alcohol] | 0.0 % Applied dose |  |  | 99.9 ± 5.8 % of applied dose | 83.5 ± 4.8 % of the applied dose | 63.2 ± 1.9% | 96.8 ± 1.9 % of applied dose | 87.1 ± 2.7 % of the applied dose | 83.5 ± 4.8 % | 4000 µg/mL | 16.2 ± 3.2 % of the applied dose | 0.2 ± 0.1 % of the applied dose | 1.95 | 8.5 ± 0.8 % of the applied dose | 1.2 ± 1.1 % of the applied dose | Number of metabolites detected in the culture medium ([2]; human skin, 24 h): eight; Parent compound in the medium after 24 h ([2]; human skin, 24 h, mean ± SEM): 0.2 ± 0.03 % Applied dose
CCOc1ccc2ccc(=O)oc2c1 [7‐EC, 7‐ethoxycoumarin] | 60.8 ± 0.6 % Applied dose |  |  | 91.9 ± 3.8 % of applied dose | 66.7 ± 3.5 % of the applied dose | 62.5 ± 2.7% | 100.0 ± 3.8 % of applied dose | 89.7 ± 3.4 % of the applied dose |  | 780 µg/mL | 24.1 ± 6.2 % of the applied dose | 1.4 ± 0.2 % of the applied dose | 2.30 | 9.3 ± 0.4 % of the applied dose | 1.0 ± 0.1 % of the applied dose | Number of metabolites detected in the culture medium ([1]; pig skin, 24 h): three; Number of metabolites detected in the culture medium ([2]; human skin, 24 h): three; Parent compound in the medium after 24 h ([2]; human skin, 24 h, mean ± SEM): 57.7 ± 3.1 % Applied dose
Cn1c(N)nc2c3cccnc3ccc21 [IQ, 2‐amino‐3‐methylimidazo[4,5‐f]quinoline] |  |  |  | 94.5 ± 10.6 % of applied dose | 10.5 ± 13.4 % of the applied dose | 30.1 ± 2.3% | 96.3 ± 6.6 % of applied dose | 54.8 ± 8.3 % of the applied dose | 10.5 ± 13.4% | 530 µg/mL | 66.0 ± 12.3 % of the applied dose | 17.9 ± 3.7 % of the applied dose | 1.47 | 33.6 ± 5.1 % of the applied dose | 7.8 ± 3.9 % of the applied dose | Metabolites detected in the skin or culture media ([1]; pig skin): no metabolites were detected; Metabolites detected in the skin or culture media ([2]; human skin): no metabolites were detected
CC(=O)Nc1ccc2c(c1)Cc1ccccc1-2 [2‐AAF, 2‐acetyl aminofluorene] |  |  |  | 91.6 ± 4.5 % of applied dose | 48.3 ± 4.2 % of the applied dose | 52.8 ± 2.3% | 87.8 ± 1.1 % of applied dose | 73.9 ± 1.1 % of the applied dose | 48.3 ± 4.2% | 4 µg/mL | 40.5 ± 5.5 % of the applied dose | 2.8 ± 0.3 % of the applied dose | 3.10 | 12.6 ± 1.5 % of the applied dose | 1.4 ± 0.4 % of the applied dose | Maximum solubility in ethanol ([4]; in ethanol): 9600 µg/mL
hydroxycinnamic acid [I (HCA)] |  |  |  |  |  |  |  |  |  |  |  |  |  |  |  | Amount of metabolite in the medium after 24 h [1]: 15.7 ± 1.3 % Applied dose; Metabolite as share of the total metabolites [1]: 27 % of the total metabolites; Amount of metabolite in the medium after 24 h [2]: 18.0 ± 0.9 % Applied dose; Metabolite as share of the total metabolites [2]: 25 % of the total metabolites
O=c1ccc2ccc(O)cc2o1 [HC, 7‐hydroxycoumarin] |  |  |  |  |  |  |  |  |  |  |  |  |  |  |  | Amount of metabolite in the medium after 24 h ([1]; 7‐EC applied to pig skin, 24 h): 1.5 ± 0.8 % Applied dose; Amount of metabolite in the medium after 24 h ([2]; 7‐EC applied to human skin, 24 h): 1.4 ± 0.4 % Applied dose
O=C(O)/C=C/c1ccccc1 [VI (cinnamic acid), cinnamic acid] |  |  |  |  |  |  |  |  |  |  |  |  |  |  |  | Amount of metabolite in the medium after 24 h ([1]; cinnamyl alcohol applied to pig skin, 24 h): 9.0 ± 0.4 % Applied dose; Metabolite as share of the total metabolites ([1]; cinnamyl alcohol applied to pig skin, medium 24 h): 15 % of the total metabolites; Amount of metabolite in the medium after 24 h ([2]; cinnamyl alcohol applied to human skin, 24 h): 0.8 ± 1.5 % Applied dose

Further lines, with some results ahead:

Parent compound in the medium after 24 h ([1]; pig skin, 24 h, mean ± SEM) | Parent compound in the medium after 24 h ([2]; both, human, 24 h) | Total metabolites in the medium after 24 h ([2]; both, human, 24 h) | Mass balance (% of applied dose at end of incubation) ([3]; human skin, 24 h) | Medium radioactivity [3, 6] | % Radioactivity in culture media after 24 h ([5]; pig skin, 2.4 nmol/cm^2) | Mass balance (% of applied dose at end of incubation) ([5]; pig skin, 48 h, 2.4 nmol/cm^2) | Medium radioactivity [5, 7] | Molecule | % Radioactivity in culture media after 24 h ([3]; human skin, 24 h) | Maximum water solubility [4] | Skin radioactivity [3, 6] | Skin surface radioactivity [3, 6] | LogP [4] | Skin radioactivity [5, 7] | Skin surface radioactivity [5, 7] | also measured
0.1 ± 0.04 % Applied dose | 0.3 ± 0.09 % Applied dose | 51.1 ± 2.3 % Applied dose | 104.4 ± 6.0 % of applied dose | 60.0 ± 7.8 % of the applied dose | 58.6 ± 5.2% | 90.7 ± 1.7 % of applied dose | 77.4 ± 5.1 % of the applied dose | COc1cc(C=O)ccc1O [Vanillin] | 60.0 ± 7.8% | 8500 µg/mL |  |  |  |  |  | Number of metabolites detected in the culture medium ([1]; pig skin, 24 h): Six
 | 0.2 ± 0.2 % Applied dose | 55.8 ± 2.9 % Applied dose |  |  |  |  |  | CCCOC(=O)c1ccc(O)cc1 [Propyl paraben] |  |  |  |  |  |  |  | Parent compound in the medium after 24 h ([1]; female, Pietrain, pig, 24 h): 0.0 % Applied dose; Total metabolites in the medium after 24 h ([1]; female, Pietrain, pig, 24 h): 50.3 ± 1.1 % Applied dose; Number of metabolites detected in the culture medium ([2]; both, human, 24 h): 12; % Radioactivity in culture media after 24 h ([3]; both, human, 24 h): 66.0 ± 9.2%; Mass balance (% of applied dose at end of incubation) ([3]; both, human, 24 h): 91.8 ± 6.6 % of applied dose; Medium radioactivity ([3]; both, human, 24 h): 61.5 ± 3.9 % of the applied dose; Skin radioactivity ([3]; both, human, 24 h): 27.6 ± 7.0 % of the applied dose; Skin surface radioactivity ([3]; both, human, 24 h): 2.8 ± 2.3 % of the applied dose; Mass balance (% of applied dose at end of incubation) ([5]; female, Pietrain, pig, 48 h): 98.7 ± 3.3 % of applied dose; Medium radioactivity ([5]; female, Pietrain, pig, 48 h): 77.8 ± 4.8 % of the applied dose; Skin radioactivity ([5]; female, Pietrain, pig, 48 h): 15.9 ± 3.0 % of the applied dose; Skin surface radioactivity ([5]; female, Pietrain, pig, 48 h): 5.0 ± 1.8 % of the applied dose
1.8 ± 0.8 % Applied dose | 4.8 ± 0.7 % Applied dose | 41.9 ± 0.6 % Applied dose | 94.2 ± 3.5 % of applied dose | 54.4 ± 1.5 % of the applied dose | 58.6 ± 7.6% | 92.7 ± 5.92 % of applied dose | 71.0 ± 7.1 % of the applied dose | Oc1cccc(O)c1 [Resorcinol] |  |  |  |  | 0.80 |  |  | Glucuronide conjugate as share of the total metabolites observed ([2]; both, human, 24 h): > 78 % of the total metabolites; Sulfate conjugate as share of the total metabolites ([2]; both, human, 24 h): 19 % of the total metabolites
